# Test results as given in patent US20240217946A1, “ANTIDEPRESSANT AND ANXIOLYTIC SUBSTITUTED CINNAMAMIDE COMPOUND” (TASLY PHARMACEUTICAL GROUP CO., LTD., priority 2021, published 2024).
# Several values for one entry are separate records, joined by “and”; a condition that tells them apart may be missing. Identical values can stand only once. Like-named read-outs stand apart in the source and are kept apart here.
# Columns and labels:
# [1] = tested on: 5-HT reuptake in rat brain synaptosomes; test: 3H-5-HT reuptake by rat brain synaptosomes; assay type: biochemical; conditions: 3H-5HT 10 nM, read-out: 5-HT inhibition rate % IC50
# Description: (§1) At present, it is believed that absolute or relative deficiencies of the central monoamine neurotransmitters 5-hydroxytryptamine (5-HT), norepinephrine (NA) and dopamine (DA) are closely related to depression and anxiety.
# (§2) Synaptosomes were separated using methods in literature to prepare brain synaptosomes. SD rats were rapidly decapitated with a small animal decapitator. After decapitation, brains were taken out quickly and precooled in an ice-water mixture, and the pia mater and vascular tissue were removed. Brain tissue was taken out. 10 times volume (ml/g) of 10 mM Tris HCl buffer (containing 0.32 M sucrose, pH 7.4) was added, an ultrasonic cell pulverizer was used for homogenization (maintaining at a low temperature), and the brain tissue was homogenized and centrifuged for 10 min (4° C., 1,000 g). After balanced centrifugation (1500 g, 10 min) at 4° C., precipitate was discarded, then supernatant was taken, and centrifugation (20000 g) was performed again for 30 min. The supernatant was discarded and the precipitate, i.e. crude extract of synaptic corpuscles, was retained. […]
# (§3) The percentage inhibition of isotope ligand binding by each compound was calculated according to the following equation: […]
# [2] = tested on: NA reuptake in rat brain synaptosomes; test: 3H-NA reuptake by rat brain synaptosomes; assay type: biochemical; conditions: 3H-NA 10 nM, rat brain synaptosomes; read-out: NA inhibition rate % IC50
# Description: as §1
# as §2, with “retained. The precipitate was further suspended in 0.32 M cold sucrose solution and then carefully laid on 1.2 M and 0.8 M (10 ml each) cold sucrose gradient solutions which had been laid sequentially on the bottom of the tube, followed by balanced centrifugation (38000 g) at 4 °C for 60 min. A suspension band at the 0.8-1.2 M sucrose interface was carefully collected with a puncture needle, which was placed in 10 ml of 0.32 M cold sucrose solution and mixed well, and equilibrium centrifuged (20000 g) at 4 °C for 30 min. The precipitate was refined brain synaptosomes.” for “retained.”
# as §3
# [3] = Pharmacokinetics and absolute bioavailability in rats (LC-MS/MS); assay type: in vivo; conditions: rat; for MRT inf: read-out: MRT0-∞
# Description: A LC-MS/MS method for determination of compound I-5 and compound M2 in rat plasma was established through experiments to investigate the pharmacokinetic characteristics and absolute bioavailability of compounds in rats.
# 20 SPF-grade SD male rats (body weight 220±20 g), purchased from Beijing Vital River Laboratory Animal Technology Co., Ltd.
# • Chromatographic column: waters BEH C18 1.7 μm; 2.1×100 mm Column • Internal standard: D-I-5 (deuterated compound I-5, with the following structural formula)
# 20 SD rats were randomly divided into 4 groups, with 5 rats in each group. […]
# 50 μL plasma was taken, 50 μL D-I-5 (20 ng/mL dissolved in acetonitrile) was added, the mixture was whirled for 30 s, then 100 μL acetonitrile was added; the mixture was fully whirled for 2 min, and was centrifuged at 4° C. at 12000 r/min for 3 min, 50 μL supernatant was taken, 50 μL aqueous solution was added for dilution, followed by whirling for Imin, and 4 μL sample was injected.
# The mean plasma concentration-time curves of rats after oral intragastric administration and intravenous administration were respectively shown in FIGS. 8 and 9. Data were processed using DAS 3.0 pharmacokinetic software (Chinese Professional Committee of Mathematical Pharmacology, Shanghai, China), and statistical moment parameters of the non-compartmental model were calculated, Cmax and Tmax being measured values.
# [4] = male, SD, plasma, po, intragastric administration 12.5 mg/kg, n = 5
# [5] = male, SD, plasma, intravenous administration 2.5 mg/kg, n = 5
# [6] = male, Sprague-Dawley (SD), plasma, po, intragastric administration 12.5 mg/kg, n = 5
# [7] = male, Sprague-Dawley (SD), plasma, intravenous administration 2.5 mg/kg, n = 5
compound,measurement,setting,value
NC(=O)/C=C/c1cc2c(c(C(F)(F)F)c1)OCO2 [Compound M2],IC50,[1],98.9 ± 2.42 nM
same,IC50,[2],23.5 ± 3.56 nM
same,bioavailability,"[3]; male, SD, plasma, oral, absolute bioavailability, intragastric 12.5 mg/kg vs intravenous 2.5 mg/kg, read-out: F (bioavailability, %)",40.8%
same,AUC(0-t),[3]; [4],1080 ± 373 ng·h/mL
same,Tmax,[3]; [4],21 min
same,half-life,[3]; [4],61.8 ± 20.4 min
same,C0,[3]; [5],1640 ± 319 ng/mL
same,half-life,[3]; [5],14.4 ± 1.8 min
same,concentration at 0.08 h,"[3]; male, SD, plasma, iv, 2.5 mg/kg, single intravenous 2.5 mg/kg, 0.08 h, read-out: Plasma concentration, Mean",1210 ng/mL
same,concentration at 0.08 h,"[3]; male, SD, plasma, iv, 2.5 mg/kg, single intravenous 2.5 mg/kg, 0.08 h, read-out: Plasma concentration, individual rats",1090 ng/mL
same,concentration at 0.25 h,"[3]; male, SD, plasma, iv, 2.5 mg/kg, single intravenous 2.5 mg/kg, 0.25 h, read-out: Plasma concentration, Mean",639 ng/mL
same,concentration at 0.25 h,"[3]; male, SD, plasma, iv, 2.5 mg/kg, single intravenous 2.5 mg/kg, 0.25 h, read-out: Plasma concentration, individual rats",575 ng/mL
same,concentration at 0.5 h,"[3]; male, SD, plasma, iv, 2.5 mg/kg, single intravenous 2.5 mg/kg, 0.50 h",315 ng/mL
same,concentration at 1 h,"[3]; male, SD, plasma, iv, 2.5 mg/kg, single intravenous 2.5 mg/kg, 1 h, read-out: Plasma concentration, Mean",79 ng/mL
same,concentration at 2 h,"[3]; male, SD, plasma, iv, 2.5 mg/kg, single intravenous 2.5 mg/kg, 2 h",5.46 ng/mL
same,concentration at 3 h,"[3]; male, SD, plasma, iv, 2.5 mg/kg, single intravenous 2.5 mg/kg, 3 h",3.21 ng/mL
same,concentration at 0.08 h,"[3]; male, SD, plasma, oral, 12.5 mg/kg, single intragastric 12.5 mg/kg, 0.08 h, read-out: Plasma concentration, Mean",191 ng/mL
same,concentration at 0.25 h,"[3]; male, SD, plasma, oral, 12.5 mg/kg, single intragastric 12.5 mg/kg, 0.25 h, read-out: Plasma concentration, Mean",398 ng/mL
same,concentration at 0.5 h,"[3]; male, SD, plasma, oral, 12.5 mg/kg, single intragastric 12.5 mg/kg, 0.50 h",387 ng/mL
same,concentration at 1 h,"[3]; male, SD, plasma, oral, 12.5 mg/kg, single intragastric 12.5 mg/kg, 1 h, read-out: Plasma concentration, Mean",211 ng/mL
same,concentration at 1 h,"[3]; male, SD, plasma, oral, 12.5 mg/kg, single intragastric 12.5 mg/kg, 1 h, read-out: Plasma concentration, individual rats",145 ng/mL
same,concentration at 2 h,"[3]; male, SD, plasma, oral, 12.5 mg/kg, single intragastric 12.5 mg/kg, 2 h",132 ng/mL
same,concentration at 3 h,"[3]; male, SD, plasma, oral, 12.5 mg/kg, single intragastric 12.5 mg/kg, 3 h",134 ng/mL
same,concentration at 4 h,"[3]; male, SD, plasma, oral, 12.5 mg/kg, single intragastric 12.5 mg/kg, 4 h, read-out: Plasma concentration, Mean",164 ng/mL
same,concentration at 6 h,"[3]; male, SD, plasma, oral, 12.5 mg/kg, single intragastric 12.5 mg/kg, 6 h",86.7 ng/mL
same,concentration at 8 h,"[3]; male, SD, plasma, oral, 12.5 mg/kg, single intragastric 12.5 mg/kg, 8 h, read-out: Plasma concentration, Mean",2.07 ng/mL
same,concentration at 8 h,"[3]; male, SD, plasma, oral, 12.5 mg/kg, single intragastric 12.5 mg/kg, 8 h, read-out: Plasma concentration, individual rats",5.38 ng/mL
same,Cmax,"[3]; male, SD, plasma, po, 12.5 mg/kg, intragastric administration 12.5 mg/kg, n = 5, read-out: Cmax",425 ± 137 ng/mL
same,AUC(0-inf),[3]; [6],1120 ± 367 ng·h/mL
same,AUC(0-t),[3]; [6],1080 ± 373 ng·h/mL
same,MRT inf,[3]; [6],151 ± 36.6 min
same,AUC(0-inf),[3]; [7],532 ± 127 ng·h/mL
same,AUC(0-t),[3]; [7],529 ± 130 ng·h/mL
same,MRT inf,[3]; [7],18.6 ± 3.6 min
same,Cmax,"[3]; intragastric administration 12.5 mg/kg, n = 5, 12.5 mg/kg",425.47 ± 136.97 ng/mL
same,"Plasma concentration, individual rats","[3]; single intragastric 12.5 mg/kg, 0.08 h",78.15 ng/mL and 127.05 ng/mL and 78.40 ng/mL and 240.77 ng/mL and 433.00 ng/mL
same,"Plasma concentration, individual rats","[3]; single intragastric 12.5 mg/kg, 0.25 h",213.75 ng/mL and 487.46 ng/mL and 212.80 ng/mL and 494.43 ng/mL and 582.67 ng/mL
same,"Plasma concentration, individual rats","[3]; single intragastric 12.5 mg/kg, 0.50 h",270.87 ng/mL and 411.67 ng/mL and 291.90 ng/mL and 416.38 ng/mL and 542.56 ng/mL
same,"Plasma concentration, individual rats","[3]; single intragastric 12.5 mg/kg, 1 h",184.82 ng/mL and 165.92 ng/mL and 270.26 ng/mL and 288.12 ng/mL
same,"Plasma concentration, individual rats","[3]; single intragastric 12.5 mg/kg, 2 h",90.66 ng/mL and 71.40 ng/mL and 131.47 ng/mL and 231.27 ng/mL and 133.28 ng/mL
same,"Plasma concentration, individual rats","[3]; single intragastric 12.5 mg/kg, 3 h",175.71 ng/mL and 60.26 ng/mL and 194.74 ng/mL and 114.91 ng/mL and 122.55 ng/mL
same,"Plasma concentration, individual rats","[3]; single intragastric 12.5 mg/kg, 4 h",268.66 ng/mL and 107.99 ng/mL and 188.58 ng/mL and 66.64 ng/mL and 188.12 ng/mL
same,"Plasma concentration, individual rats","[3]; single intragastric 12.5 mg/kg, 6 h",57.55 ng/mL and 48.74 ng/mL and 11.84 ng/mL and 15.99 ng/mL and 299.46 ng/mL
same,"Plasma concentration, individual rats","[3]; single intragastric 12.5 mg/kg, 8 h",BLOQ (3×) and 3.64 ng/mL
same,"Plasma concentration, individual rats","[3]; single intravenous 2.5 mg/kg, 0.08 h, 2.5 mg/kg",1221.94 ng/mL and 1589.64 ng/mL and 991.98 ng/mL and 1170.61 ng/mL
same,"Plasma concentration, individual rats","[3]; single intravenous 2.5 mg/kg, 0.25 h, 2.5 mg/kg",742.62 ng/mL and 807.81 ng/mL and 497.57 ng/mL and 574.42 ng/mL
same,"Plasma concentration, individual rats","[3]; single intravenous 2.5 mg/kg, 0.50 h, 2.5 mg/kg",281.81 ng/mL and 435.1 ng/mL and 406.94 ng/mL and 201.98 ng/mL and 248.89 ng/mL
same,"Plasma concentration, individual rats","[3]; single intravenous 2.5 mg/kg, 1 h, 2.5 mg/kg",74.30 ng/mL and 130.96 ng/mL and 92.59 ng/mL and 39.74 ng/mL and 57.32 ng/mL
same,"Plasma concentration, individual rats","[3]; single intravenous 2.5 mg/kg, 2 h, 2.5 mg/kg",4.62 ng/mL and 12.27 ng/mL and 2.23 ng/mL and BLOQ and 2.72 ng/mL
same,"Plasma concentration, individual rats","[3]; single intravenous 2.5 mg/kg, 3 h, 2.5 mg/kg",2.035 ng/mL and 4.403 ng/mL and BLOQ (3×)
same,"Plasma concentration, individual rats","[3]; single intravenous 2.5 mg/kg, 4 h",BLOQ
same,"Plasma concentration, individual rats","[3]; single intravenous 2.5 mg/kg, 6 h",BLOQ
same,"Plasma concentration, individual rats","[3]; single intravenous 2.5 mg/kg, 8 h",BLOQ
